Ki and pKi data for 20 compounds are collected here from patent publication US10130642B2, “Neprilysin inhibitors” (THERAVANCE BIOPHARMA R&D IP, LLC, priority 2011, dated 2018).

Bounds are passed on as bounds.

In the first test the target is human NEP (Homo sapiens (Human), UniProt P08473). Briefly: In vitro enzyme inhibition assay, inhibitor potencies at human NEP.
human NEP, sequence (P08473 52-750): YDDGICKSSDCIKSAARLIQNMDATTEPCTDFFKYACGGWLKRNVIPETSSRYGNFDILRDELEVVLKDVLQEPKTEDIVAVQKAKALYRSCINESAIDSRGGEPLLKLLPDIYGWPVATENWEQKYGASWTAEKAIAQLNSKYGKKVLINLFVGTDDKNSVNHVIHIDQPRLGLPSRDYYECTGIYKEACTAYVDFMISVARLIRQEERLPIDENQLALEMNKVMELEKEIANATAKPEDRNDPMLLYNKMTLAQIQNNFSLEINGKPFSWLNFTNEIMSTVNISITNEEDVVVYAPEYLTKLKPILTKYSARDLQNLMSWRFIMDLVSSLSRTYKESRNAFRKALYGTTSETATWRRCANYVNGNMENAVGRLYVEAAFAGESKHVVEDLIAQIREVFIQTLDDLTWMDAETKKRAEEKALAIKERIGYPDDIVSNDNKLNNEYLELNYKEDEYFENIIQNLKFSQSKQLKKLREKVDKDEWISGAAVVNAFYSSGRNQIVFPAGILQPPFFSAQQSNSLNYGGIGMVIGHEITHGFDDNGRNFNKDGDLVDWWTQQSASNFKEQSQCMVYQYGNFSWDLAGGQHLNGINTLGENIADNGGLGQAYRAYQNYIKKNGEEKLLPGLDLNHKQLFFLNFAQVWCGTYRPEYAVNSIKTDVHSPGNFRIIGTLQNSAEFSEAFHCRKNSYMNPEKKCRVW
Conditions: not given
`C[C@@](CO)(C[C@@H](Cc1ccc(-c2ccccc2)cc1)NC(=O)c1nc(Cl)n[nH]1)C(=O)O` [Example 6-1, (2S,4R)-5-Biphenyl-4-yl-4-[(5-chloro-2H-[1,2,4]triazole-3-carbonyl)-amino]-2-hydroxymethyl-2-methyl-pentanoic acid]: the inhibition constant (Ki) (as a rule, the equilibrium dissociation constant of an inhibitor or competing ligand from its target) lay within 1.26 to 10 nM.
In turn, `C[C@@](CO)(C[C@@H](Cc1ccc(-c2ccccc2)cc1)NC(=O)c1nc(O)n[nH]1)C(=O)O` [Example 6-2, (2S,4R)-5-Biphenyl-4-yl-2-hydroxymethyl-4-[(5-hydroxy-2H-[1,2,4]triazole-3-carbonyl)-amino]-2-methyl-pentanoic acid] yielded a Ki of 12.6 to 100 nM.
For `C[C@](CO)(C[C@@H](Cc1ccc(-c2ccccc2)cc1)NC(=O)c1cnn[nH]1)C(=O)O` [Example 6-3, (2R,4R)-5-Biphenyl-4-yl-2-hydroxymethyl-2-methyl-4-[(3H-[1,2,3]triazole-4-carbonyl)-amino]-pentanoic acid], the Ki lay within 12.6 to 100 nM.
`C[C@@](CO)(C[C@@H](Cc1ccc(-c2ccccc2)cc1)NC(=O)c1cn(O)nn1)C(=O)O` [Example 6-4, (2S,4R)-5-Biphenyl-4-yl-2-hydroxymethyl-4-[(1-hydroxy-1H-[1,2,3]triazole-4-carbonyl)-amino]-2-methyl-pentanoic acid]: the Ki is ≤ 1 nM.
For `C[C@@](CO)(C[C@@H](Cc1ccc(-c2ccccc2)cc1)NC(=O)c1cn(Cc2ccccc2)nn1)C(=O)O` [Example 6-6, (2S,4R)-4-[(1-Benzyl-1H-[1,2,3]triazole-4-carbonyl)-amino]-5-biphenyl-4-yl-2-hydroxymethyl-2-methyl-pentanoic acid], the Ki is 12.6 to 100 nM.
Turning to `CC(CO)(C[C@@H](Cc1ccc(-c2ccccc2)cc1)NC(=O)c1cc(C(=O)O)n[nH]1)C(=O)O` (stereo partly drawn) [Example 6-15, 5-((R)-1-Biphenyl-4-ylmethyl-3-carboxy-4-hydroxy-3-methyl-butylcarbamoyl)-1H-pyrazole-3-carboxylic acid], the Ki is ≤ 1 nM.
Compound `CC(=O)c1cc(C(=O)N[C@H](Cc2ccc(-c3ccccc3)cc2)C[C@@](C)(CO)C(=O)O)[nH]n1` [Example 6-16, (2S,4R)-4-[(5-Acetyl-2H-pyrazole-3-carbonyl)-amino]-5-biphenyl-4-yl-2-hydroxymethyl-2-methyl-pentanoic acid] came in with a Ki of 12.6 to 100 nM.
`C[C@@](CO)(C[C@@H](Cc1ccc(-c2ccccc2)cc1)NC(=O)c1cc(O)n[nH]1)C(=O)O` [Example 6-17, (2S,4R)-5-Biphenyl-4-yl-2-hydroxymethyl-4-[(5-hydroxy-2H-pyrazole-3-carbonyl)-amino]-2-methyl-pentanoic acid]: the inhibition constant Ki lay in the range of 1.26 to 10 nM.
As for `C[C@@](CO)(C[C@@H](Cc1ccc(-c2ccccc2)cc1)NC(=O)c1cnc(O)nc1)C(=O)O` [Example 6-18, (2S,4R)-5-Biphenyl-4-yl-2-hydroxymethyl-4-[(2-hydroxy-pyrimidine-5-carbonyl)-amino]-2-methyl-pentanoic acid], the inhibitory constant (Ki) is ≤ 1 nM.
As to `C[C@@](CO)(C[C@@H](Cc1ccc(-c2ccccc2)cc1)NC(=O)c1cc(O)no1)C(=O)O` [Example 6-19, (2S,4R)-5-Biphenyl-4-yl-4-[(3-hydroxy-isoxazole-5-carbonyl)-amino]-2-hydroxymethyl-2-methyl-pentanoic acid], the Ki is ≤ 1 nM.
For the compound `C[C@@](CO)(C[C@@H](Cc1ccc(-c2cccc(F)c2)cc1)NC(=O)c1cnn[nH]1)C(=O)O` [Example 8-1, (2S,4R)-5-(3′-Fluorobiphenyl-4-yl)-2-hydroxymethyl-2-methyl-4-[(3H-[1,2,3]triazole-4-carbonyl)-amino]-pentanoic acid], the Ki is ≤ 1 nM.
For `C[C@@](CO)(C[C@@H](Cc1ccc(-c2ccccc2F)cc1)NC(=O)c1cnn[nH]1)C(=O)O` [Example 8-2, (2S,4R)-5-(2′-Fluorobiphenyl-4-yl)-2-hydroxymethyl-2-methyl-4-[(3H-[1,2,3]triazole-4-carbonyl)-amino]-pentanoic acid], the inhibition constant (Ki) is ≤ 1 nM.
For the compound `C[C@@](CO)(C[C@@H](Cc1ccc(-c2ccc(F)cc2)cc1)NC(=O)c1cnn[nH]1)C(=O)O` [Example 8-3, (2S,4R)-5-(4′-Fluorobiphenyl-4-yl)-2-hydroxymethyl-2-methyl-4-[(3H-[1,2,3]triazole-4-carbonyl)-amino]-pentanoic acid], the inhibition constant Ki lay in the range of 12.6 to 100 nM.
As to `C[C@@](CO)(C[C@@H](Cc1ccc(-c2ccccc2F)cc1)NC(=O)c1cn(O)nn1)C(=O)O` [Example 8-4, (2S,4R)-5-(2′-Fluoro-biphenyl-4-yl)-2-hydroxymethyl-4-[(1-hydroxy-1H-[1,2,3]triazole-4-carbonyl)-amino]-2-methyl-pentanoic acid], the Ki is ≤ 1 nM.
The same measure, in the same setting: with `C[C@@](CO)(C[C@@H](Cc1ccc(-c2ccccc2F)cc1)NC(=O)c1coc(=O)[nH]1)C(=O)O` [Example 8-5, (2S,4R)-5-(2′-Fluoro-biphenyl-4-yl)-2-hydroxymethyl-2-methyl-4-[(2-oxo-2,3-dihydro-oxazole-4-carbonyl)-amino]-pentanoic acid] the figure was ≤ 1 nM; with `C[C@@](CO)(C[C@@H](Cc1ccc(-c2ccccc2F)cc1)NC(=O)c1c[nH]c(=O)o1)C(=O)O` [Example 8-6, (2S,4R)-5-(2′-Fluoro-biphenyl-4-yl)-2-hydroxymethyl-2-methyl-4-[(2-oxo-2,3-dihydro-oxazole-5-carbonyl)-amino]-pentanoic acid], ≤ 1 nM; with `CC(C)(c1ccc(-c2ccccc2)cc1)[C@H](C[C@@H](CO)C(=O)O)NC(=O)c1cc(O)no1` [Example 9, (2S,4S)-5-Biphenyl-4-yl-4-[(3-hydroxy-isoxazole-5-carbonyl)-amino]-2-hydroxymethyl-5-methyl-hexanoic Acid], ≤ 1 nM.
On to `CC(C)(c1ccc(-c2ccccc2)cc1)[C@H](C[C@@H](CO)C(=O)O)NC(=O)c1cn(O)nn1` [Example 10-1, (2S,4S)-5-Biphenyl-4-yl-2-hydroxymethyl-4-[(1-hydroxy-1H-[1,2,3]triazole-4-carbonyl)-amino]-5-methyl-hexanoic acid], for which the inhibitory constant (Ki) was ≤ 1 nM.
Consider `CC(C)(c1ccc(-c2ccccc2)cc1)[C@H](C[C@@H](CO)C(=O)O)NC(=O)c1cnn[nH]1` [Example 10-2, (2S,4S)-5-Biphenyl-4-yl-2-hydroxymethyl-5-methyl-4-[(3H-[1,2,3]triazole-4-carbonyl)-amino]-hexanoic acid], for which the inhibition constant Ki was ≤ 1 nM.

Still in this test, the particulars now being: pKi values at human NEP; recombinant human NEP, fluorogenic peptide substrate, 37° C.
Turning to `C[C@@](CO)(C[C@@H](Cc1ccc(-c2cccc(F)c2)cc1)NC(=O)c1cc(C(=O)O)n[nH]1)C(=O)O` [Example 7, 5-[(1R,3S)-3-Carboxy-1-(3′-fluorobiphenyl-4-ylmethyl)-4-hydroxy-3-methyl-butylcarbamoyl]-1H-pyrazole-3-carboxylic Acid], the pKi (usually −log10 of the Ki, conventionally taken in molar units) is ≥9.0.
